Data reported in patent US9096532B2, “Pyrazole inhibitors of COX-2 and sEH” (The Regents of the University of California, priority 2010, dated 2015).

Tests used:
ovine COX-1 = target: T1, ovine COX-1 (Ovis aries, UniProt P05979); assay: Cyclooxygenase inhibition assay (COX Fluorescent Inhibitor Screening Assay Kit), COX-1; type: biochemical; conditions: read-out: COX-1 (% inhibition)
T1 construct: purchased Cayman Chemical 700100
T1 sequence (P05979 25-600): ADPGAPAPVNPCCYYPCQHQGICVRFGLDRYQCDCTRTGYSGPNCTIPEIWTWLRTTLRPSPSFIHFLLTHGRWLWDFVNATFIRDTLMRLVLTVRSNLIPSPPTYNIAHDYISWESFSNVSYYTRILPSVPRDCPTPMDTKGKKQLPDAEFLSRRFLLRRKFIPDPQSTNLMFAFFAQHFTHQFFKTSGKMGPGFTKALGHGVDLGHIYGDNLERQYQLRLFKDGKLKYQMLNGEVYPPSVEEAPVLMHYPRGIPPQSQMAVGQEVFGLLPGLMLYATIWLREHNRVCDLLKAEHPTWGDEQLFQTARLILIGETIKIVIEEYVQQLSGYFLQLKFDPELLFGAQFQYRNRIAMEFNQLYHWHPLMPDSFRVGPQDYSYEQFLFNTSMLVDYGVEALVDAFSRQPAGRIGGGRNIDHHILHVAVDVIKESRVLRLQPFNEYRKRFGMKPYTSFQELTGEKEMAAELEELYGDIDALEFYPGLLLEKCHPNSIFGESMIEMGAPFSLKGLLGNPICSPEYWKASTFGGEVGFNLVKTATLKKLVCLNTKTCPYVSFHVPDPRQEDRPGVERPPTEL
Description: (§1) Stock solutions of test compounds are dissolved in a minimum volume of DMSO. 10 μl of various concentrations of the test compound solutions, e.g., [I]final between 0.01 and 100 μM, are added to a series of supplied reaction buffer solutions (150 μl, 100 mM Tris-HCl, pH 8.0) with either COX-1 or COX-2 (10 μl) enzyme in the presence of Heme (10 μl) and a fluorometric substrate (10 μl). The reactions are initiated by quickly adding 10 μl of arachidonic acid solution and then incubating the system for two minutes at room temperature. […] The intensity of this fluorescence is proportional to the amount of resorufin, which is proportional to the amount of PGG2 present in the well during the incubation. Percent inhibition is calculated by comparison from the 100% initial activity sample value (no inhibitor).
as §1, with “compounds were” for “compounds are”, “μM, were” for “μM, are”, “reactions were” for “reactions are”, “then incubated” for “then incubating the system”, “inhibition was” for “inhibition is”

human sEH = target: T2, human sEH (Homo sapiens, UniProt P34913); assay: sEH IC50 assay, fluorescent-based with CMNPC substrate; type: biochemical; conditions: for IC50: kinetic fluorescent assay, means ± SD of three separate experiments
T2 sequence (P34913 1-555): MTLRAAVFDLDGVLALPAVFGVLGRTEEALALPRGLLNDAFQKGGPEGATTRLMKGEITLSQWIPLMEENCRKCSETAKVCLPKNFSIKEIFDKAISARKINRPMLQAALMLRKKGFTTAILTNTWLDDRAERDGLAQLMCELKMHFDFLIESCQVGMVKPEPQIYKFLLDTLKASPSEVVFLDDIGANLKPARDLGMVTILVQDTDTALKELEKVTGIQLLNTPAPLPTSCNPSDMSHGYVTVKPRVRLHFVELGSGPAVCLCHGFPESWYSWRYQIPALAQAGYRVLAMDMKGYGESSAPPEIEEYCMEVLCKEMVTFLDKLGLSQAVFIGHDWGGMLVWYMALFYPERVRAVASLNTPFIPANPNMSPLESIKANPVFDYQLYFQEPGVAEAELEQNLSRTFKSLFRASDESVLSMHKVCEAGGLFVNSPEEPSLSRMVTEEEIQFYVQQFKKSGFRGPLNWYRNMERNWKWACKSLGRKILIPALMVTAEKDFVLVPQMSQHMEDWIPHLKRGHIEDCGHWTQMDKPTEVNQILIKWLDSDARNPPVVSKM
Description: sEH inhibition IC50 values for the compounds presented herein can be assayed by a recombinant affinity assay using purified sEHs, from human, mouse or rat, in a fluorescent-based assay.
For the recombinant affinity assay, purified sEHs (human, mouse and rat) were used in a fluorescent-based assay to determine IC50 values. […] These IC50 values were calculated from at least three separate runs, each in triplicate, to obtain the statistics herein, e.g., standard deviation.

[1] = Pharmacokinetics in mice by oral cassette dosing; type: in vivo; conditions: oral cassette dosing at 5 mg/kg, blood
Description: All the animal experiments were performed according to protocols approved by the Animal Use and Care Committee of University of California, Davis. […] Each cassette was orally administered to 4 mice at a dose of 5 mg/kg in 120-150 μl of vehicle depending on animal weight. […] The instrument was equipped with a linear ion trap and a Turbo V ion source and was operated in negative ion MRM mode. […] This was maintained for 3 min, then the gradient was returned to 30% solvent B in 2 min. The flow rate was 0.4 mL/min. The injection volume was 10 μL and the samples were kept at 4° C. in the auto sampler.

human recombinant COX-2 = target: T3, human recombinant COX-2 (Homo sapiens, UniProt P35354); assay: Cyclooxygenase inhibition assay (COX Fluorescent Inhibitor Screening Assay Kit), COX-2; type: biochemical; conditions: compared to compound 21b
T3 construct: purchased Cayman Chemical 700100
T3 sequence (P35354 18-604): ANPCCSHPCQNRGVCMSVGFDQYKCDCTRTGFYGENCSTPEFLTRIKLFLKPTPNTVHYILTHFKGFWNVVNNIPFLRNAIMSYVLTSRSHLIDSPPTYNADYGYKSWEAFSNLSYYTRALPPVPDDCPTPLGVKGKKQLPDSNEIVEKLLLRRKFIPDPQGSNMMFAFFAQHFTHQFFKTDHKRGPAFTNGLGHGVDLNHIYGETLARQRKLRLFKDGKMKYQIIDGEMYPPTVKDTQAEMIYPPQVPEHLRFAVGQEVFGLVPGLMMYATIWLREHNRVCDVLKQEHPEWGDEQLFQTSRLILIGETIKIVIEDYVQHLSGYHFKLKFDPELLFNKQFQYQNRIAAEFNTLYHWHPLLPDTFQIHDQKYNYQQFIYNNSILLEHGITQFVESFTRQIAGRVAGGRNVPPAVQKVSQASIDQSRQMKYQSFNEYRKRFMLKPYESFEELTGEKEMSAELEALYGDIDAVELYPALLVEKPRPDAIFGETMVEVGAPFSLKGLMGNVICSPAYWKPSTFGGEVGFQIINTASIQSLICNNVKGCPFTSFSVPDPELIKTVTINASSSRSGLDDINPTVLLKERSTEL
Description: as §1
as §1, with “compounds were” for “compounds are”, “μM, were” for “μM, are”, “reactions were” for “reactions are”, “then incubated” for “then incubating the system”, “inhibition was” for “inhibition is”

CS(=O)(=O)c1ccc(-n2nc(CNC(=O)Nc3ccc(OC(F)(F)F)cc3)cc2-c2ccccc2)cc1 [Compound 11d, 1-[1-(4-Methanesulfonyl-phenyl)-5-phenyl-1H-pyrazol-3-ylmethyl]-3-(4-trifluoromethoxy-phenyl)-urea]
inhibition at 100 µM (ovine COX-1): 10.4%

CS(=O)(=O)c1ccc(-n2nc(CNC(=O)NC34CC5CC(CC(C5)C3)C4)cc2-c2ccccc2)cc1 [Compound 11a, 1-Adamantan-1-yl-3-[1-(4-methanesulfonyl-phenyl)-5-phenyl-1H-pyrazol-3-ylmethyl]-urea]
inhibition at 100 µM (ovine COX-1): 12.7%

COc1ccc2c(c1)c(CC(=O)O)c(C)n2C(=O)c1ccc(Cl)cc1 [Indomethacin, reference compound]
IC50 (human sEH): > 10 µM

NS(=O)(=O)c1ccc(-n2nc(CNC(=O)Nc3cccc(C(F)(F)F)c3)cc2-c2ccccc2)cc1 [Compound 11g, 4-{5-Phenyl-3-[3-(3-trifluoromethyl-phenyl)-ureidomethyl]-pyrazol-1-yl}-benzenesulfonamide]
inhibition at 100 µM (ovine COX-1): 16.9%

CS(=O)(=O)c1ccc(-n2nc(CNC(=O)Nc3cccc(C(F)(F)F)c3)cc2-c2ccccc2)cc1 [Compound 11f, 1-[1-(4-Methanesulfonyl-phenyl)-5-phenyl-1H-pyrazol-3-ylmethyl]-3-(3-trifluoromethyl-phenyl)-urea]
inhibition at 100 µM (ovine COX-1): 7.8%

CS(=O)(=O)c1ccc(C2=C(c3ccccc3)C(=O)OC2)cc1 [Rofecoxib, rofecoxib, reference compound]
IC50 (human sEH): > 10 µM | inhibition at 100 µM (ovine COX-1): 16.5%

CS(=O)(=O)c1ccc(-n2nc(CCCNC(=O)Nc3cccc(C(F)(F)F)c3)cc2-c2ccccc2)cc1 [Compound 21a, 1-{3-[1-(4-Methanesulfonyl-phenyl)-5-phenyl-1H-pyrazol-3-yl]-propyl}-3-(3-trifluoromethyl-phenyl)-urea]
inhibition at 100 µM (ovine COX-1): 6.4%

NS(=O)(=O)c1ccc(-n2nc(NC(=O)Nc3cccc(C(F)(F)F)c3)cc2-c2ccccc2)cc1 [Compound 7, 4-{5-Phenyl-3-[3-(3-trifluoromethyl-phenyl)-ureido]-pyrazol-1-yl}-benzenesulfonamide]
inhibition at 100 µM (ovine COX-1): 33.9%

NS(=O)(=O)c1ccc(-n2nc(CCNC(=O)Nc3cccc(C(F)(F)F)c3)cc2-c2ccccc2)cc1 [Compound 15, 4-(5-Phenyl-3-{2-[3-(3-trifluoromethyl-phenyl)-ureido]-ethyl}-pyrazol-1-yl)-benzenesulfonamide]
Improvement of sEH inhibition (human sEH; compared to compound 11g): 3 fold | inhibition at 100 µM (ovine COX-1): 22%

NS(=O)(=O)c1ccc(-n2nc(CCCNC(=O)NC34CC5CC(CC(C5)C3)C4)cc2-c2ccccc2)cc1 [Compound 21f, 4-{3-[3-(3-Adamantan-1-yl-ureido)-propyl]-5-phenyl-pyrazol-1-yl}-benzenesulfonamide]
AUC [1]: 22 nM·h | Cmax [1]: 20 nM | Tmax [1]: 30 min | t1/2 [1]: 1.7 h | inhibition at 100 µM (ovine COX-1): 6.7%

Cc1cccc(C)c1NC(=O)NCCCc1cc(-c2ccccc2)n(-c2ccc(S(N)(=O)=O)cc2)n1 [Compound 21d, 4-(3-{3-[3-(2,6-Dimethyl-phenyl)-ureido]-propyl}-5-phenyl-pyrazol-1-yl)-benzenesulfonamide]
IC50 (human sEH): 1.55 ± 0.07 µM | inhibition at 100 µM (ovine COX-1): 6.2%

Cc1ccc(-c2cc(CCCNC(=O)Nc3cccc(C(F)(F)F)c3)nn2-c2ccc(S(N)(=O)=O)cc2)cc1 [Compound 21c, 4-(5-p-Tolyl-3-{3-[3-(3-trifluoromethyl-phenyl)-ureido]-propyl}-pyrazol-1-yl)-benzenesulfonamide]
Diminished COX-2 inhibition (human recombinant COX-2): 3 fold | Diminished sEH inhibition (human sEH; compared to compound 21b): 3 fold | inhibition at 100 µM (ovine COX-1): 12.1%

NS(=O)(=O)c1ccc(-n2nc(CCCNC(=O)Nc3ccccc3)cc2-c2ccccc2)cc1 [Compound 21e, 4-{5-Phenyl-3-[3-(3-phenyl-ureido)-propyl]-pyrazol-1-yl}-benzenesulfonamide]
AUC [1]: 125 nM·h | Cmax [1]: 100 nM | Tmax [1]: 30 min | t1/2 [1]: 3.1 h | inhibition at 100 µM (ovine COX-1): 15.8%

NS(=O)(=O)c1ccc(-n2nc(CCCNC(=O)Nc3ccc(Cl)cc3)cc2-c2ccccc2)cc1 [Compound 21h, 4-(3-{3-[3-(4-Chloro-phenyl)-ureido]-propyl}-5-phenyl-pyrazol-1-yl)-benzenesulfonamide]
AUC [1]: 375 nM·h | Cmax [1]: 190 nM | Tmax [1]: 48 min | t1/2 [1]: 2.4 h | inhibition at 100 µM (ovine COX-1): 15.2%

CC(C)(C)c1cc(CNC(=O)Nc2cccc(C(F)(F)F)c2)nn1-c1ccc(S(C)(=O)=O)cc1 [Compound 11h, 1-[5-tert-Butyl-1-(4-methanesulfonyl-phenyl)-1H-pyrazol-3-ylmethyl]-3-(3-trifluoromethyl-phenyl)-urea]
inhibition at 100 µM (ovine COX-1): 2.4%

NS(=O)(=O)c1ccc(-n2nc(CCCNC(=O)NC3CCCCCC3)cc2-c2ccccc2)cc1 [Compound 21g, 4-{3-[3-(3-Cycloheptyl-ureido)-propyl]-5-phenyl-pyrazol-1-yl}-benzenesulfonamide]
AUC [1]: 100 nM·h | Cmax [1]: 42 nM | Tmax [1]: 30 min | t1/2 [1]: 3.5 h | inhibition at 100 µM (ovine COX-1): 10.2%

CS(=O)(=O)c1ccc(-n2nc(CNC(=O)Nc3ccc(C(F)(F)F)cc3)cc2-c2ccccc2)cc1 [Compound 11e, 1-[1-(4-Methanesulfonyl-phenyl)-5-phenyl-1H-pyrazol-3-ylmethyl]-3-(4-trifluoromethyl-phenyl)-urea]
inhibition at 100 µM (ovine COX-1): 10.7%

CS(=O)(=O)c1ccc(-n2nc(CNC(=O)NC3CCCCCC3)cc2-c2ccccc2)cc1 [Compound 11b, 1-Cycloheptyl-3-[1-(4-methanesulfonyl-phenyl)-5-phenyl-1H-pyrazol-3-ylmethyl]-urea]
Improvement of sEH inhibition (human sEH; compared to compound 11a): 10 fold | inhibition at 100 µM (ovine COX-1): 3.4%
